In ChEMBL document CHEMBL5335843, “Application of tobramycin benzyl ether as an antibiotic adjuvant capable of sensitizing multidrug-resistant Gram-negative bacteria to rifampicin” (2024):

Experiments:
Acinetobacter baumannii [1] = experiment: Antibacterial activity against multi-drug resistant Acinetobacter baumannii clinical isolate AB027 assessed as inhibition of bacterial growth incubated for 18 hrs by two fold broth microdilution assay; assay type: functional
Escherichia coli [2] = experiment: Antibacterial activity against Escherichia coli ATCC 25922 assessed as inhibition of bacterial growth incubated for 18 hrs by two fold broth microdilution assay; assay type: functional
Pseudomonas aeruginosa [3] = experiment: Antibacterial activity against multi-drug resistant Pseudomonas aeruginosa clinical isolate PA259 assessed as inhibition of bacterial growth incubated for 18 hrs by two fold broth microdilution assay; assay type: functional
Acinetobacter baumannii [4] = experiment: Antibacterial activity against multi-drug resistant Acinetobacter baumannii clinical isolate AB031 assessed as inhibition of bacterial growth incubated for 18 hrs by two fold broth microdilution assay; assay type: functional
Pseudomonas aeruginosa [5] = experiment: Antibiotic adjuvant activity against multi-drug resistant Pseudomonas aeruginosa clinical isolate 114228 assessed as rifampicin MIC incubated for 18 hrs in presence of Rifampicin by two fold broth microdilution checkerboard assay; assay type: functional
Pseudomonas aeruginosa [6] = experiment: Antibiotic adjuvant activity against multi-drug resistant Pseudomonas aeruginosa clinical isolate PA262 assessed as inhibition of bacterial growth incubated for 18 hrs in presence of Rifampicin by two fold broth microdilution checkerboard assay; assay type: functional
Pseudomonas aeruginosa [7] = experiment: Antibiotic adjuvant activity against multi-drug resistant Pseudomonas aeruginosa clinical isolate PA264 assessed as inhibition of bacterial growth incubated for 18 hrs in presence of Rifampicin by two fold broth microdilution checkerboard assay; assay type: functional
Escherichia coli [8] = experiment: Antibiotic adjuvant activity against multi-drug resistant Escherichia coli clinical isolate 94393 assessed as inhibition of bacterial growth incubated for 18 hrs in presence of Rifampicin by two fold broth microdilution checkerboard assay; assay type: functional
Escherichia coli [9] = experiment: Antibiotic adjuvant activity against multi-drug resistant Escherichia coli clinical isolate 94474 assessed as inhibition of bacterial growth incubated for 18 hrs in presence of Rifampicin by two fold broth microdilution checkerboard assay; assay type: functional
Pseudomonas aeruginosa [10] = experiment: Antibiotic adjuvant activity against multi-drug resistant Pseudomonas aeruginosa clinical isolate 101243 assessed as fractional inhibitory concentration index incubated for 18 hrs in presence of Rifampicin by two fold broth microdilution checkerboard assay; assay type: functional
Pseudomonas aeruginosa [11] = experiment: Antibiotic adjuvant activity against multi-drug resistant Pseudomonas aeruginosa clinical isolate PA262 assessed as fractional inhibitory concentration index incubated for 18 hrs in presence of Rifampicin by two fold broth microdilution checkerboard assay; assay type: functional
Escherichia coli [12] = experiment: Antibiotic adjuvant activity against multi-drug resistant Escherichia coli clinical isolate 107115 assessed as fractional inhibitory concentration index incubated for 18 hrs in presence of Rifampicin by two fold broth microdilution checkerboard assay; assay type: functional
Escherichia coli [13] = experiment: Antibiotic adjuvant activity against multi-drug resistant Escherichia coli clinical isolate 94474 assessed as fractional inhibitory concentration index incubated for 18 hrs in presence of Rifampicin by two fold broth microdilution checkerboard assay; assay type: functional
Escherichia coli [14] = experiment: Antibiotic adjuvant activity against multi-drug resistant Escherichia coli clinical isolate EC107115 assessed as minocycline MIC incubated for 18 hrs in presence of minocycline by two fold broth microdilution checkerboard assay; assay type: functional
Pseudomonas aeruginosa [15] = experiment: Antibiotic adjuvant activity against multi-drug resistant Pseudomonas aeruginosa clinical isolate PA264 assessed as inhibition of bacterial growth incubated for 18 hrs in presence of minocycline by two fold broth microdilution checkerboard assay; assay type: functional
Pseudomonas aeruginosa [16] = experiment: Antibiotic adjuvant activity against multi-drug resistant Pseudomonas aeruginosa clinical isolate PA114228 assessed as fold potentiation incubated for 18 hrs in presence of minocycline by two fold broth microdilution checkerboard assay; assay type: functional
Pseudomonas aeruginosa [17] = experiment: Antibiotic adjuvant activity against multi-drug resistant Pseudomonas aeruginosa clinical isolate PA262 assessed as fractional inhibitory concentration index incubated for 18 hrs in presence of minocycline by two fold broth microdilution checkerboard assay; assay type: functional
Pseudomonas aeruginosa [18] = experiment: Antibiotic adjuvant activity against multi-drug resistant Pseudomonas aeruginosa clinical isolate PA264 assessed as fractional inhibitory concentration index incubated for 18 hrs in presence of minocycline by two fold broth microdilution checkerboard assay; assay type: functional
Pseudomonas aeruginosa [19] = experiment: Antibiotic adjuvant activity against multi-drug resistant Pseudomonas aeruginosa clinical isolate PA101243 assessed as doxycycline MIC incubated for 18 hrs in presence of doxycycline by two fold broth microdilution checkerboard assay; assay type: functional
Pseudomonas aeruginosa [20] = experiment: Antibiotic adjuvant activity against multi-drug resistant Pseudomonas aeruginosa clinical isolate PA262 assessed as doxycycline MIC incubated for 18 hrs in presence of doxycycline by two fold broth microdilution checkerboard assay; assay type: functional
Pseudomonas aeruginosa [21] = experiment: Antibiotic adjuvant activity against multi-drug resistant Pseudomonas aeruginosa clinical isolate PA262 assessed as inhibition of bacterial growth incubated for 18 hrs in presence of doxycycline by two fold broth microdilution checkerboard assay; assay type: functional
Pseudomonas aeruginosa [22] = experiment: Antibiotic adjuvant activity against multi-drug resistant Pseudomonas aeruginosa clinical isolate PA259 assessed as fold potentiation incubated for 18 hrs in presence of doxycycline by two fold broth microdilution checkerboard assay; assay type: functional
Pseudomonas aeruginosa [23] = experiment: Antibiotic adjuvant activity against multi-drug resistant Pseudomonas aeruginosa clinical isolate PA264 assessed as fractional inhibitory concentration index incubated for 18 hrs in presence of doxycycline by two fold broth microdilution checkerboard assay; assay type: functional
Escherichia coli [24] = experiment: Antibiotic adjuvant activity against multi-drug resistant Escherichia coli clinical isolate EC107115 assessed as fractional inhibitory concentration index incubated for 18 hrs in presence of doxycycline by two fold broth microdilution checkerboard assay; assay type: functional
Enterococcus faecium = experiment: Antibiotic adjuvant activity against Enterococcus faecium 128149 assessed as rifampicin MIC incubated for 18 hrs in presence of rifampicin by two fold broth microdilution checkerboard assay; assay type: functional
Staphylococcus aureus = experiment: Antibiotic adjuvant activity against methicilin-resistant Staphylococcus aureus assessed as fold potentiation incubated for 18 hrs in presence of rifampicin by two fold broth microdilution checkerboard assay; assay type: functional
Cell membrane = experiment: Induction of outer membrane permeabilization in Escherichia coli ATCC 25922 assessed as increase fluorescence intensity by measuring NPN uptake factor at 4 to 8 uM by fluorescence based analysis; assay type: subcellular; settings: dose 4-8 µM, TDE = time-dependent effect
Acinetobacter baumannii [25] = experiment: Antibiotic adjuvant activity against Acinetobacter baumannii ATCC 17978 assessed as fold potentiation incubated for 18 hrs in presence of rifampicin and CAMHB Mg2+ media by two fold broth microdilution checkerboard assay; assay type: functional
Escherichia coli [26] = experiment: Antibiotic adjuvant activity against Escherichia coli ATCC 25922 assessed as fold potentiation incubated for 18 hrs in presence of rifampicin and CAMHB Na+ media by two fold broth microdilution checkerboard assay; assay type: functional
Acinetobacter baumannii [27] = experiment: Antibiotic adjuvant activity against Acinetobacter baumannii ATCC 17978 assessed as fold potentiation incubated for 18 hrs in presence of rifampicin and CAMHB Na+ media by two fold broth microdilution checkerboard assay; assay type: functional
Acinetobacter baumannii [28] = experiment: Antibiotic adjuvant activity against Acinetobacter baumannii ATCC 17978 assessed as fold potentiation at 8 to 16 ug/ml incubated for 18 hrs in presence of rifampicin and FBS media by two fold broth microdilution checkerboard assay; assay type: functional; settings: dose 8-16 µg/ml
Acinetobacter baumannii [29] = experiment: Antibiotic adjuvant activity against Acinetobacter baumannii ATCC 17978 assessed as fold potentiation incubated for 18 hrs in presence of rifampicin by two fold broth microdilution checkerboard assay relative to FBS; assay type: functional
Escherichia coli [30] = experiment: Antibiotic adjuvant activity against Escherichia coli ATCC 25922 assessed as novobiocin MIC incubated for 18 hrs in presence of novobiocin by two fold broth microdilution checkerboard assay; assay type: functional
Escherichia coli [31] = experiment: Antibiotic adjuvant activity against Escherichia coli ATCC 25922 assessed as minocycline MIC incubated for 18 hrs in presence of minocycline by two fold broth microdilution checkerboard assay; assay type: functional
Escherichia coli [32] = experiment: Antibiotic adjuvant activity against Escherichia coli ATCC 25922 assessed as doxycycline MIC incubated for 18 hrs in presence of doxycycline by two fold broth microdilution checkerboard assay; assay type: functional

For `Cl.NC[C@H]1O[C@H](O[C@H]2[C@H](OCc3ccccc3)[C@@H](O[C@H]3O[C@H](COCc4ccccc4)[C@@H](OCc4ccccc4)[C@H](N)[C@H]3OCc3ccccc3)[C@H](N)C[C@@H]2N)[C@H](N)C[C@@H]1OCc1ccccc1`, the MIC (Acinetobacter baumannii [1]) was 64 µg/mL, the MIC (Escherichia coli [2]) was 32 µg/mL and the MIC (Pseudomonas aeruginosa [3]) was 128 µg/mL. For the same compound, the MIC (Acinetobacter baumannii [4]) was 32 µg/mL, the MIC (Pseudomonas aeruginosa [5]) was 16 µg/mL and the MIC (Pseudomonas aeruginosa [6]) was 8 µg/mL. For the same compound, the MIC (Pseudomonas aeruginosa [7]) was 8 µg/mL, the MIC (Escherichia coli [8]) was 8 µg/mL and the MIC (Escherichia coli [9]) was 4 µg/mL. For the same compound, the “fractional inhibitory concentration index (FICI)” value (Pseudomonas aeruginosa [10]) was 0.126, the “fractional inhibitory concentration index (FICI)” value (Pseudomonas aeruginosa [11]) was 1.063 and the “fractional inhibitory concentration index (FICI)” value (Escherichia coli [12]) was 0.063. For the same compound, the “fractional inhibitory concentration index (FICI)” value (Escherichia coli [13]) was 0.129, the MIC (Escherichia coli [14]) was 1 µg/mL and the MIC (Pseudomonas aeruginosa [15]) was 8 µg/mL. The “fold change (FC)” value (Pseudomonas aeruginosa [16]) was 1, the “fractional inhibitory concentration index (FICI)” value (Pseudomonas aeruginosa [17]) was 1.063 and the “fractional inhibitory concentration index (FICI)” value (Pseudomonas aeruginosa [18]) was 0.563. It also gave an MIC (Pseudomonas aeruginosa [19]) greater than 128 µg/mL, an MIC (Pseudomonas aeruginosa [20]) of 512 µg/mL and an MIC (Pseudomonas aeruginosa [21]) of 8 µg/mL. The “fold change (FC)” value (Pseudomonas aeruginosa [22]) was 1, the “fractional inhibitory concentration index (FICI)” value (Pseudomonas aeruginosa [23]) was 1.063 and the “fractional inhibitory concentration index (FICI)” value (Escherichia coli [24]) was 0.313. The MIC (Enterococcus faecium) was 8 µg/mL, the “fold change (FC)” value (Staphylococcus aureus) was 1 and the Activity (Cell membrane) was “Tde”. It also gave a fold change (FC) (Acinetobacter baumannii [25]) of 16, a fold change (FC) (Escherichia coli [26]) of 512 and a fold change (FC) (Acinetobacter baumannii [27]) of 256. The “fold change (FC)” value (Acinetobacter baumannii [28]) was 4, the “fold change (FC)” value (Acinetobacter baumannii [29]) was 64 and the MIC (Escherichia coli [30]) was 0.125 µg/mL. For the same compound, the MIC (Escherichia coli [31]) was 8 µg/mL and the MIC (Escherichia coli [32]) was 0.125 µg/mL.
